Reference: ChEMBL document CHEMBL1201862, “PubChem BioAssay data set” (2004)
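Method: 48-hour compound exposure of cells in 96-well plates, five concentrations, linear interpolation of endpoints. At the GI50, growth is halved.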 Activity calls are given as the source filed them. Cut-off read from the data, not from the text of the source: active = GI50 up to about 1.1 µM and inactive = higher.

Legend:
Assay in all cases: NCI-60 cell line screen, 48 h
786-0 = tested on: 786-0
A498 = tested on: A498
A549 = tested on: A549
ACHN = tested on: ACHN
BT-549 = tested on: BT-549
CAKI-1 = tested on: CAKI-1
CCRF-CEM = tested on: CCRF-CEM
COLO 205 = tested on: COLO 205
DU-145 = tested on: DU-145
EKVX = tested on: EKVX
HCC 2998 = tested on: HCC 2998
HCT-116 = tested on: HCT-116
HCT-15 = tested on: HCT-15
HL-60 = tested on: HL-60
HOP-62 = tested on: HOP-62
HOP-92 = tested on: HOP-92
HT-29 = tested on: HT-29
Hs-578T = tested on: Hs-578T
IGROV-1 = tested on: IGROV-1
K562 = tested on: K562
KM12 = tested on: KM12
LOX IMVI = tested on: LOX IMVI
M14 = tested on: M14
MCF7 = tested on: MCF7
MDA-MB-231 = tested on: MDA-MB-231
MDA-MB-435 = tested on: MDA-MB-435
MDA-N = tested on: MDA-N
MOLT-4 = tested on: MOLT-4
Malme-3M = tested on: Malme-3M
NCI-H226 = tested on: NCI-H226
NCI-H23 = tested on: NCI-H23
NCI-H460 = tested on: NCI-H460
NCI-H522 = tested on: NCI-H522
NCI/ADR-RES = tested on: NCI/ADR-RES
OVCAR-3 = tested on: OVCAR-3
OVCAR-4 = tested on: OVCAR-4
OVCAR-5 = tested on: OVCAR-5
OVCAR-8 = tested on: OVCAR-8
PC-3 = tested on: PC-3
RPMI-8226 = tested on: RPMI-8226
RXF 393 = tested on: RXF 393
SF-268 = tested on: SF-268
SF-295 = tested on: SF-295
SF-539 = tested on: SF-539
SK-MEL-28 = tested on: SK-MEL-28
SK-MEL-2 = tested on: SK-MEL-2
SK-MEL-5 = tested on: SK-MEL-5
SK-OV-3 = tested on: SK-OV-3
SN12C = tested on: SN12C
SNB-19 = tested on: SNB-19
SNB-75 = tested on: SNB-75
SR = tested on: SR
SW-620 = tested on: SW-620
T47D = tested on: T47D
TK-10 = tested on: TK-10
U-251 = tested on: U-251
UACC-257 = tested on: UACC-257
UACC-62 = tested on: UACC-62
UO-31 = tested on: UO-31

CCOC(=O)C1=C(C(=O)OCC)SC2(S1)C(C(=O)OCC)=C(C(=O)OCC)Sc1c2ssc1=O
GI50 (786-0): 811 nM (active)
GI50 (A498): 6150 nM (inactive)
GI50 (A549): 2260 nM (inactive)
GI50 (ACHN): 1720 nM (inactive)
GI50 (BT-549): 1940 nM (inactive)
GI50 (CAKI-1): 2420 nM (inactive)
GI50 (CCRF-CEM): 160 nM (active)
GI50 (COLO 205): 1840 nM (inactive)
GI50 (DU-145): 857 nM (active)
GI50 (EKVX): 2340 nM (inactive)
GI50 (HCC 2998): 2420 nM (inactive)
GI50 (HCT-116): 815 nM (active)
GI50 (HCT-15): 912 nM
GI50 (HL-60): 279 nM (active)
GI50 (HOP-62): 1670 nM (inactive)
GI50 (HOP-92): 1350 nM (inactive)
GI50 (HT-29): 1760 nM (inactive)
GI50 (Hs-578T): 1970 nM (inactive)
GI50 (IGROV-1): 764 nM (active)
GI50 (K562): 474 nM (active)
GI50 (KM12): 4520 nM (inactive)
GI50 (LOX IMVI): 239 nM (active)
GI50 (M14): 2040 nM (inactive)
GI50 (MCF7): 1740 nM (inactive)
GI50 (MDA-MB-231): 2000 nM (inactive)
GI50 (MDA-MB-435): 1990 nM (inactive)
GI50 (MDA-N): 1970 nM (inactive)
GI50 (MOLT-4): 226 nM (active)
GI50 (Malme-3M): 1980 nM (inactive)
GI50 (NCI-H226): 22100 nM (inactive)
GI50 (NCI-H23): 1930 nM (inactive)
GI50 (NCI-H460): 8510 nM (inactive)
GI50 (NCI-H522): 1360 nM (inactive)
GI50 (NCI/ADR-RES): 2710 nM (inactive)
GI50 (OVCAR-3): 1690 nM (inactive)
GI50 (OVCAR-4): 1270 nM (inactive)
GI50 (OVCAR-5): 4700 nM (inactive)
GI50 (OVCAR-8): 1600 nM (inactive)
GI50 (PC-3): 1440 nM (inactive)
GI50 (RPMI-8226): 1590 nM (inactive)
GI50 (RXF 393): 1030 nM (active)
GI50 (SF-268): 1970 nM (inactive)
GI50 (SF-295): 15000 nM (inactive)
GI50 (SF-539): 845 nM (active)
GI50 (SK-MEL-28): 1840 nM (inactive)
GI50 (SK-MEL-2): 2170 nM (inactive)
GI50 (SK-MEL-5): 2030 nM (inactive)
GI50 (SK-OV-3): 6120 nM (inactive)
GI50 (SN12C): 918 nM (active)
GI50 (SNB-19): 3840 nM (inactive)
GI50 (SNB-75): 1850 nM (inactive)
GI50 (SR): < 10 nM (active)
GI50 (SW-620): 361 nM (active)
GI50 (T47D): 1760 nM (inactive)
GI50 (TK-10): 1730 nM (inactive)
GI50 (U-251): 1930 nM (inactive)
GI50 (UACC-257): 1600 nM (inactive)
GI50 (UACC-62): 1940 nM (inactive)
GI50 (UO-31): 1540 nM (inactive)

C/C(=C\c1csc(C)n1)[C@@H]1C[C@@H]2O[C@]2(C)CCC[C@H](C)[C@H](O)[C@@H](C)C(=O)C(C)(C)[C@@H](O)CC(=O)O1 [PATUPILONE]
GI50 (786-0): < 0.1 nM (active)
GI50 (A498): < 0.1 nM (active)
GI50 (A549): < 0.1 nM (active)
GI50 (ACHN): < 0.1 nM (active)
GI50 (BT-549): < 0.1 nM (active)
GI50 (CAKI-1): < 0.1 nM (active)
GI50 (CCRF-CEM): < 0.1 nM (active)
GI50 (COLO 205): < 0.1 nM (active)
GI50 (DU-145): < 0.1 nM (active)
GI50 (EKVX): < 0.1 nM (active)
GI50 (HCC 2998): < 0.1 nM (active)
GI50 (HCT-116): < 0.1 nM (active)
GI50 (HCT-15): < 0.1 nM
GI50 (HL-60): < 0.1 nM (active)
GI50 (HOP-62): < 0.1 nM (active)
GI50 (HOP-92): < 0.1 nM (active)
GI50 (HT-29): < 0.1 nM (active)
GI50 (Hs-578T): < 0.1 nM (active)
GI50 (IGROV-1): < 0.1 nM (active)
GI50 (K562): < 0.1 nM (active)
GI50 (KM12): < 0.1 nM (active)
GI50 (LOX IMVI): < 0.1 nM (active)
GI50 (M14): < 0.1 nM (active)
GI50 (MCF7): < 0.1 nM (active)
GI50 (MDA-MB-231): < 0.1 nM (active)
GI50 (MDA-MB-435): < 0.1 nM (active)
GI50 (MDA-N): < 0.1 nM (active)
GI50 (MOLT-4): < 0.1 nM (active)
GI50 (Malme-3M): 10 nM (active)
GI50 (NCI-H226): < 0.1 nM (active)
GI50 (NCI-H23): < 0.1 nM (active)
GI50 (NCI-H460): < 0.1 nM (active)
GI50 (NCI-H522): < 0.1 nM (active)
GI50 (NCI/ADR-RES): < 0.1 nM (active)
GI50 (OVCAR-3): < 0.1 nM (active)
GI50 (OVCAR-4): 0.458 nM (active)
GI50 (OVCAR-5): < 0.1 nM (active)
GI50 (OVCAR-8): < 0.1 nM (active)
GI50 (PC-3): < 0.1 nM (active)
GI50 (RPMI-8226): < 0.1 nM (active)
GI50 (RXF 393): < 0.1 nM (active)
GI50 (SF-268): < 0.1 nM (active)
GI50 (SF-295): < 0.1 nM (active)
GI50 (SF-539): < 0.1 nM (active)
GI50 (SK-MEL-28): < 0.1 nM (active)
GI50 (SK-MEL-2): < 0.1 nM (active)
GI50 (SK-MEL-5): < 0.1 nM (active)
GI50 (SK-OV-3): < 0.1 nM (active)
GI50 (SN12C): < 0.1 nM (active)
GI50 (SNB-19): < 0.1 nM (active)
GI50 (SNB-75): < 0.1 nM (active)
GI50 (SR): < 0.1 nM (active)
GI50 (SW-620): < 0.1 nM (active)
GI50 (T47D): < 0.1 nM (active)
GI50 (TK-10): < 0.1 nM (active)
GI50 (U-251): < 0.1 nM (active)
GI50 (UACC-257): < 0.1 nM (active)
GI50 (UACC-62): < 0.1 nM (active)
GI50 (UO-31): < 0.1 nM (active)

CN(C)CCOc1ccc2[nH]c(C(=O)N3CC(CCl)c4c3cc(NC(=O)OCc3ccc([N+](=O)[O-])cc3)c3ccccc43)cc2c1 (stereo unspecified)
GI50 (786-0): 979 nM (active)
GI50 (A498): 1850 nM (inactive)
GI50 (A549): 1240 nM (inactive)
GI50 (ACHN): 689 nM (active)
GI50 (BT-549): 1850 nM (inactive)
GI50 (CAKI-1): 1180 nM (inactive)
GI50 (CCRF-CEM): 162 nM (active)
GI50 (COLO 205): 1640 nM (inactive)
GI50 (DU-145): 552 nM (active)
GI50 (EKVX): 1730 nM (inactive)
GI50 (HCC 2998): 8150 nM (inactive)
GI50 (HCT-116): 794 nM (active)
GI50 (HCT-15): 1550 nM
GI50 (HL-60): 269 nM (active)
GI50 (HOP-62): 1470 nM (inactive)
GI50 (HOP-92): 1500 nM (inactive)
GI50 (Hs-578T): 2300 nM (inactive)
GI50 (IGROV-1): 1450 nM (inactive)
GI50 (K562): 237 nM (active)
GI50 (KM12): 1290 nM (inactive)
GI50 (LOX IMVI): 1450 nM (inactive)
GI50 (M14): 1630 nM (inactive)
GI50 (MCF7): 211 nM (active)
GI50 (MDA-MB-231): 2140 nM (inactive)
GI50 (MDA-MB-435): 1600 nM (inactive)
GI50 (MDA-N): 1600 nM (inactive)
GI50 (MOLT-4): 538 nM (active)
GI50 (Malme-3M): 1470 nM (inactive)
GI50 (NCI-H226): 1670 nM (inactive)
GI50 (NCI-H23): 1360 nM (inactive)
GI50 (NCI-H460): 4050 nM (inactive)
GI50 (NCI-H522): 1120 nM (inactive)
GI50 (NCI/ADR-RES): 1340 nM (inactive)
GI50 (OVCAR-3): 1630 nM (inactive)
GI50 (OVCAR-4): 1990 nM (inactive)
GI50 (OVCAR-5): 1600 nM (inactive)
GI50 (OVCAR-8): 483 nM (active)
GI50 (PC-3): 1460 nM (inactive)
GI50 (RPMI-8226): 493 nM (active)
GI50 (RXF 393): 1510 nM (inactive)
GI50 (SF-268): 1370 nM (inactive)
GI50 (SF-295): 1600 nM (inactive)
GI50 (SF-539): 1690 nM (inactive)
GI50 (SK-MEL-28): 1640 nM (inactive)
GI50 (SK-MEL-2): 2140 nM (inactive)
GI50 (SK-MEL-5): 1450 nM (inactive)
GI50 (SK-OV-3): 1660 nM (inactive)
GI50 (SN12C): 1500 nM (inactive)
GI50 (SNB-19): 1710 nM (inactive)
GI50 (SNB-75): 1630 nM (inactive)
GI50 (SR): 533 nM (active)
GI50 (SW-620): 1190 nM (inactive)
GI50 (T47D): 1550 nM (inactive)
GI50 (TK-10): 14200 nM (inactive)
GI50 (U-251): 1360 nM (inactive)
GI50 (UACC-257): 14600 nM (inactive)
GI50 (UACC-62): 1830 nM (inactive)
GI50 (UO-31): 1280 nM (inactive)
